In patent US20110183954A1, “TRICYCLIC 2,4-DIAMINO-L,3,5-TRIAZINE DERIVATIVES USEFUL FOR THE TREATMENT OF CANCER AND MYELOPROLIFERATIVE DISORDERS” (ASTRAZENECA AB, priority 2008, published 2011):

These molecules were tested against human JAK2 (Homo sapiens, UniProt O60674) (assay: Method 1 (JAK2): Amplified Luminescent Proximity Assay (Alphascreen)). Conditions: 150 pM JAK2 enzyme, 5 mM ATP, 60 minutes, room temperature, read-out: IC50 (JAK inhibitory activity, Method 1 (JAK2)).
Format: biochemical
Set-up: His6 (C); purchased Upstate Biotechnology; host or cells: baculovirus in Sf21 cells
Source text: JAK2 kinase activity may be determined by measuring the kinase's ability to phosphorylate synthetic tyrosine residues within a generic polypeptide substrate using an Amplified Luminescent Proximity Assay (Alphascreen) technology (PerkinElmer, 549 Albany Street, Boston, Mass.).
To measure JAK2 kinase activity, a commercially available purified enzyme may be used. The enzyme may be a C-terminal His6-tagged, recombinant, human JAK2, amino acids 808-end, (Genbank Accession number NM 004972) expressed by baculovirus in Sf21 cells (Upstate Biotechnology MA). After incubation of the kinase with a biotinylated substrate and adenosine triphosphate (ATP) for 60 minutes at room temperature, the kinase reaction may be stopped by the addition of 30 mM ethylenediaminetetraacetic acid (EDTA). The reaction may be performed in 384 well microtitre plates and the reaction products may be detected with the addition of streptavidin coated Donor Beads and phosphotyrosine-specific antibodies coated Acceptor Beads using the EnVision Multilabel Plate Reader after an overnight incubation at room temperature.

Chain of human JAK2 (O60674 808-1132 limits assumed): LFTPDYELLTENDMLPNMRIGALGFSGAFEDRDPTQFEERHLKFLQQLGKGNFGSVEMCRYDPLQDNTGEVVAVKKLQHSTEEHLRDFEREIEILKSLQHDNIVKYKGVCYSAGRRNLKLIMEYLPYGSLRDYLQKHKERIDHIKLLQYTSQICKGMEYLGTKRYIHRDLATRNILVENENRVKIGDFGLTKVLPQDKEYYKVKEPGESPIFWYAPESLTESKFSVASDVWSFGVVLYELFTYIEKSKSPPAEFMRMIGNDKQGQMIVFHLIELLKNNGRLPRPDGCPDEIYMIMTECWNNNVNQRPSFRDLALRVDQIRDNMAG

Row | SMILES | IC50 [nM]
1 | C[C@H](Nc1nc(Nc2cn(CC#N)cn2)nc(N2CCOCC2)n1)c1ncc(F)cn1 [Example 15, {4-[(4-{[(1S)-1-(5-Fluoropyrimidin-2-yl)ethyl]amino}-6-morpholin-4-yl-1,3,5-triazin-2-yl)amino]-1H-imidazol-1-yl}acetonitrile] | 873
2 | C[C@@H](Nc1nc(Nc2cn(C)cn2)nc(N2CCOCC2)n1)c1ncc(F)cc1F (single isomer, unassigned) [Example 10(a)] | 190
3 | C[C@H](Nc1nc(Nc2cn(C)cn2)nc(N2CCC(F)(F)CC2)n1)c1ncc(F)cn1 [Example 14, 6-(4,4-Difluoropiperidin-1-yl)-N-[(1S)-1-(5-fluoropyrimidin-2-yl)ethyl]-N′-(1-methyl-1H-imidazol-4-yl)-1,3,5-triazine-2,4-diamine] | 7
4 | C[C@H](Nc1nc(Nc2cn(C)cn2)nc(N2CCOCC2)n1)c1ncc(F)cn1 [Example 5, N-[(1S)-1-(5-Fluoropyrimidin-2-yl)ethyl]-N′-(1-methyl-1H-imidazol-4-yl)-6-morpholin-4-yl-1,3,5-triazine-2,4-diamine] | 9
5 | COCn1cnc(Nc2nc(N[C@@H](C)c3ncc(F)cn3)nc(N3CCOCC3)n2)c1 [Example 16, N-[(1S)-1-(5-Fluoropyrimidin-2-yl)ethyl]-N′-[1-(methoxymethyl)-1H-imidazol-4-yl]-6-morpholin-4-yl-1,3,5-triazine-2,4-diamine] | 2870
6 | C[C@H](Nc1nc(Nc2ncc(C#N)s2)nc(N2CCOCC2)n1)c1ncc(F)cn1 [Example 7, 2-[(4-{[(1S)-1-(5-Fluoropyrimidin-2-yl)ethyl]amino}-6-morpholin-4-yl-1,3,5-triazin-2-yl)amino]-1,3-thiazole-5-carbonitrile] | 3170
7 | CC(C)n1cnc(Nc2nc(N[C@@H](C)c3ncc(F)cn3)nc(N3CCOCC3)n2)c1 [Example 17, N-[(1S)-1-(5-Fluoropyrimidin-2-yl)ethyl]-N′-(1-isopropyl-1H-imidazol-4-yl)-6-morpholin-4-yl-1,3,5-triazine-2,4-diamine] | 2880
8 | COC1CN(c2nc(Nc3cn(C)cn3)nc(N[C@@H](C)c3ncc(F)cn3)n2)C1 [Example 20, N-[(1S)-1-(5-Fluoropyrimidin-2-yl)ethyl]-6-(3-methoxyazetidin-1-yl)-N′-(1-methyl-1H-imidazol-4-yl)-1,3,5-triazine-2,4-diamine] | 7
9 | C[C@H](Nc1nc(Nc2cn(C)cn2)nc(N2CC(F)C2)n1)c1ncc(F)cc1F [Example 18, N-[(1S)-1-(3,5-Difluoropyridin-2-yl)ethyl]-6-(3-fluoroazetidin-1-yl)-N′-(1-methyl-1H-imidazol-4-yl)-1,3,5-triazine-2,4-diamine] | 13
10 | C[C@H](Nc1nc(Nc2cn(CCc3ccccc3)cn2)nc(N2CCOCC2)n1)c1ncc(F)cn1 [Example 6, N-[(1S)-1-(5-Fluoropyrimidin-2-yl)ethyl]-6-morpholin-4-yl-N′-[1-(2-phenylethyl)-1H-imidazol-4-yl]-1,3,5-triazine-2,4-diamine] | 283
11 | COC[C@H](Nc1nc(Nc2cn(C)cn2)nc(N2CCOC(C)C2)n1)c1ncc(F)cc1F (stereo partly drawn) [Example 2, N-[(1R)-1-(3,5-Difluoropyridin-2-yl)-2-methoxyethyl]-N′-(1-methyl-1H-imidazol-4-yl)-6-(2-methylmorpholin-4-yl)-1,3,5-triazine-2,4-diamine] | 11
12 | Cc1cnc(Nc2nc(N[C@@H](C)c3ncc(F)cn3)nc(N3CCOCC3)n2)s1 [Example 8, N-[(1S)-1-(5-Fluoropyrimidin-2-yl)ethyl]-N′-(5-methyl-1,3-thiazol-2-yl)-6-morpholin-4-yl-1,3,5-triazine-2,4-diamine] | 4
13 | COC[C@H](Nc1nc(Nc2cn(C)cn2)nc(N2C[C@@H](C)O[C@@H](C)C2)n1)c1ncc(F)cc1F [Example 1, N-[(1R)-1-(3,5-Difluoropyridin-2-yl)-2-methoxyethyl]-6-[(2R,6S)-2,6-dimethylmorpholin-4-yl]-N′-(1-methyl-1H-imidazol-4-yl)-1,3,5-triazine-2,4-diamine] | 18
14 | COC[C@H](Nc1nc(Nc2cn(C)cn2)nc(N2CCOC(C)(C)C2)n1)c1ncc(F)cc1F [Example 3, N-[(1R)-1-(3,5-Difluoropyridin-2-yl)-2-methoxyethyl]-6-(2,2-dimethylmorpholin-4-yl)-N-(1-methyl-1H-imidazol-4-yl)-1,3,5-triazine-2,4-diamine] | 9
15 | COC[C@H](Nc1nc(Nc2cn(C)cn2)nc(N2CCOCC2)n1)c1ncc(F)cc1F [Example 4, N-[(1R)-1-(3,5-Difluoropyridin-2-yl)-2-methoxyethyl]-N′-(1-methyl-1H-imidazol-4-yl)-6-morpholin-4-yl-1,3,5-triazine-2,4-diamine] | 4
16 | COC1CN(c2nc(Nc3cn(C)cn3)nc(N[C@@H](C)c3ncc(F)cc3F)n2)C1 [Example 19, N-[(1S)-1-(3,5-Difluoropyridin-2-yl)ethyl]-6-(3-methoxyazetidin-1-yl)-N′-(1-methyl-1H-imidazol-4-yl)-1,3,5-triazine-2,4-diamine] | 3
17 | CC(Nc1nc(Nc2cn(C)cn2)nc(N2CCOCC2)n1)c1ncc(F)cc1F (racemic) [Example 10, N-[1-(3,5-Difluoropyridin-2-yl)ethyl]-N′-(1-methyl-1H-imidazol-4-yl)-6-morpholin-4-yl-1,3,5-triazine-2,4-diamine] | 4
18 | C[C@H](Nc1nc(Nc2cn(C)cn2)nc(N2CCOCC2)n1)c1ncc(F)cc1F (single isomer, unassigned) [Example 10(b)] | < 8
19 | C[C@H](Nc1nc(Nc2cn(C)cn2)nc(N2CCC(F)(F)CC2)n1)c1ncc(F)cc1F [Example 9, 6-(4,4-Difluoropiperidin-1-yl)-N-[(1S)-1-(3,5-difluoropyridin-2-yl)ethyl]-N-(1-methyl-1H-imidazol-4-yl)-1,3,5-triazine-2,4-diamine] | 4

Second part, the molecule after the results:

Row | IC50 [nM] | SMILES
20 | 4 | C[C@H](Nc1nc(Nc2cn(C)cn2)nc(N2CCOC[C@H]2CO)n1)c1ncc(F)cc1F [Example 22, [(3R)-4-(4-{[(1S)-1-(3,5-difluoropyridin-2-yl)ethyl]amino}-6-[(1-methyl-1H-imidazol-4-yl)amino]-1,3,5-triazin-2-yl)morpholin-3-yl]methanol]
21 | 234 | CCn1cnc(Nc2nc(N[C@@H](C)c3ncc(F)cc3F)nc(N3CCOCC3)n2)c1 [Example 31, N-[(1S)-1-(3,5-difluoropyridin-2-yl)ethyl]-N′-(1-ethyl-1H-imidazol-4-yl)-6-morpholin-4-yl-1,3,5-triazine-2,4-diamine]
22 | 219 | C[C@H](Nc1nc(Nc2cscn2)nc(N2CCOCC2)n1)c1ncc(F)cn1 [Example 26, N-[(1S)-1-(5-Fluoropyrimidin-2-yl)ethyl]-6-morpholin-4-yl-N′-1,3-thiazol-4-yl-1,3,5-triazine-2,4-diamine]
23 | 4 | C[C@H](Nc1nc(Nc2cn(C)cn2)nc(N2CCC(F)CC2)n1)c1ncc(F)cc1F [Example 21, N-[(1S)-1-(3,5-Difluoropyridin-2-yl)ethyl]-6-(4-fluoropiperidin-1-yl)-N′-(1-methyl-1H-imidazol-4-yl)-1,3,5-triazine-2,4-diamine]
24 | 393 | C[C@H](Nc1nc(Nc2cn(C3CC3)cn2)nc(N2CCOCC2)n1)c1ncc(F)cn1 [Example 32, N-(1-Cyclopropyl-1H-imidazol-4-yl)-N′-[(1S)-1-(5-fluoropyrimidin-2-yl)ethyl]-6-morpholin-4-yl-1,3,5-triazine-2,4-diamine]
25 | 998 | C[C@H](Nc1nc(Nc2cn(CCc3ccsc3)cn2)nc(N2CCOCC2)n1)c1ncc(F)cn1 [Example 33, N-[(1S)-1-(5-Fluoropyrimidin-2-yl)ethyl]-6-morpholin-4-yl-N′-{1-[2-(3 thienyl)ethyl]-1H-imidazol-4-yl}-1,3,5-triazine-2,4-diamine]
26 | 86 | C[C@H](Nc1nc(Nc2c[nH]cn2)nc(N2CCOCC2)n1)c1ncc(F)cn1 [Example 23, N-[(1S)-1-(5-Fluoropyrimidin-2-yl)ethyl]-N′-1H-imidazol-4-yl-6-morpholin-4-yl-1,3,5-triazine-2,4-diamine]
27 | 798 | C[C@H](Nc1nc(Nc2cn(C)cn2)nc(N2CCOCC2)n1)c1ccc(C#N)cc1 [Example 28, 4-[(1S)-1-({4-[(1-methyl-1H-imidazol-4-yl)amino]-6-morpholin-4-yl-1,3,5-triazin-2-yl}amino)ethyl]benzonitrile]
28 | 8320 | C[C@H](Nc1nc(Nc2cn(CC(F)(F)F)cn2)nc(N2CCOCC2)n1)c1ncc(F)cn1 [Example 34, N-[(1S)-1-(5-fluoropyrimidin-2-yl)ethyl]-6-morpholin-4-yl-N′-[1-(2,2,2-trifluoroethyl)-1H-imidazol-4-yl]-1,3,5-triazine-2,4-diamine]
29 | 23 | CCn1cnc(Nc2nc(N[C@@H](C)c3ncc(F)cn3)nc(N3CCOCC3)n2)c1 [Example 35, N-(1-Ethyl-1H-imidazol-4-yl)-N′-[(1S)-1-(5-fluoropyrimidin-2-yl)ethyl]-6-morpholin-4-yl-1,3,5-triazine-2,4-diamine]
